One data set relates to VZV. Nature of the data set: Anti-VZV Activity, plaque reduction assay in MRC-5 cells. Conditions: Human alphaherpesvirus 3, MRC5, MRC-5 cells, clinical isolates. It counts as cell-based, varicella zoster virus (clinical isolates). How it is done:
Clinical isolates of varicella zoster virus (VZV) were assayed in monolayers of MRC-5 cells. MRC-5 cells are derived from human embyonic lung tissue. A plaque reduction assay was used in which a suspension Of the virus stock was used to infect monolayers of the cells in multiwell trays. a range of concentrations of the compound under test of known molarity was added to the wells. Plaque numbers at each concnetration were expressed as percentages of the control and a dose response curve was constructed. From these curves the 50% inhibitory concentration of each drug was determined.

In another data set the test system is HSV2. Put plainly: Anti-HSV Activity, plaque reduction assay in Vero cells (HSV-2 strain 186). The data set is classed as cell-based, Herpes Simplex Virus type 2 (strain 186). How it is done: (§1) Herpes Simplex Virus types 1 (HSV 1) and 2 (HSV2) were assayed in monolayers of Vero cells in multiwell trays. The virus strains used were SC16 and 186 for HSV-1 and HSV-2 respectively. Activity of compounds was determined in the plaque reduction assay, in which a cell monolayer was infected with a suspension of the appropirate HSV, and then overlaid with nutrient agarose in the form of a gel to ensure that there was no spread of virus throughout the culture. A range of concentrations of compound of known molarity was incorporated in the nutrient agarose overlay. Plaque numbers at each concentration were expressed as percentages of the control and a dose-response curve was drawn. From this curve the 50% inhibitory concentration (IC50) was estimated to be 0.66 μm for the compound of formula (I) in which X represents a 2-bromovinyl group.
For orientation: In a plaque reduction assay, fewer plaques than in the control indicate reduced infectivity or spread.

A further data set concerns HSV1. Put plainly: Anti-HSV Activity, plaque reduction assay in Vero cells (HSV-1 strain SC16). It counts as cell-based, Herpes Simplex Virus type 1 (strain SC16). On the procedure: as §1
Data set [1] can be described thus: CCID50 (Table 1; method not described). The data set is classed as cell-based.
The nature of data set [2]: toxicity / therapeutic index (general statement). To be noted: statement in words.

One may read the IC50 as the midpoint of a concentration-inhibition curve. Higher therefore signals a need for much substance. For orientation: CC50 means the concentration giving 50% cytotoxicity. The low end stands for harm at low concentration, the high end for better tolerance by the cells.

As to `CCc1cn([C@H]2C[C@H](O)[C@@H](CO)S2)c(=O)[nH]c1=O` [CH2 CH3, OH, 2'-Deoxy-5-ethyl-4'thiouridine], the half-inhibitory concentration (IC50) in the data set with VZV amounted to 0.79 µM. Turning to `Nc1nc(=O)n([C@H]2C[C@H](O)[C@@H](CO)S2)cc1/C=C/Br` [CH=CHBr, NH2, 2'-Deoxy-5-E-(2-bromovinyl)-4'-thiocytidine], the IC50 is above 10 µM in the data set with HSV2 (Vero cells, strain 186, plaque reduction) and around 2.3 µM with HSV1 (Vero cells, strain SC16, plaque reduction). Turning to `O=c1[nH]c(=O)n([C@H]2C[C@H](O)[C@@H](CO)S2)cc1/C=C/Br` [CH=CHBr, OH, E-5-(2-bromovinyl)-2'-deoxy-4'-thiouridine], the CC50 in data set [1] was above 500 µM.

For the compound `Cc1cn([C@H]2C[C@H](O)[C@@H](CO)S2)c(=O)[nH]c1=O` [β-4'-thio-thymidine], the “activity against HSV2” value in the data set on HSV2 (statement in words) is given as “good activity”. Also, the toxicity entry in data set [2] was “toxic”. For the same compound, the “activity against HSV1” value in the data set with HSV1 (statement in words) is reported as “good activity”.
